{
  "source": "patent US4017485A",
  "about": "“7-Methoxycephalosporin derivatives” (Takeda Chemical Industries, Ltd., priority 1973, dated 1977)",
  "key": {"mice": {"tested_on": "mice", "experiment": "Acute toxicity test in mice", "format": "in vivo", "settings": "400 mg. per kilogram of body weight, intravenously", "description": "In an acute toxicity test in mice, there occurred no death when 400 mg. of Antibiotic C-2801-X monosodium salt per kilogram of body weight was administered intravenously."}, "acidity-alkalinity": {"experiment": "acidity-alkalinity", "format": "physicochemical"}, "Solubility": {"experiment": "Solubility", "format": "physicochemical"}, "[1]": {"tested_on": "Pseudomonas aeruginosa IFO-3080", "experiment": "Antimicrobial spectrum, minimal inhibitory concentration", "format": "cell-based", "settings": "IFO3080, Tripticase Soy Agar (BBL), pH 6.5, 37° C, read-out: minimal inhibitory concentrations", "description": "(§1) Based on the above physical and chemical properties as well as the results of other analyses, the chemical structure of this new antibiotic C-2801-X was determined as follows. [drawing 2] 11. Antimicrobial spectrum: Medium: Tripticase Soy Agar (BBL) (manufactured by Becton Dickenson Co., U.S.A.), pH 6.5, minimal inhibitory concentrations mcg/ml., temperature 37° C\n(§2) (The IFO-numbers given above are the accession numbers at the Institute\n(§3) for Fermentation, Osaka, Japan)."}, "[2]": {"tested_on": "Alcaligenes faecalis IFO-13111", "experiment": "Antimicrobial spectrum, minimal inhibitory concentration", "format": "cell-based", "settings": "IFO13111, Tripticase Soy Agar (BBL), pH 6.5, 37° C, read-out: minimal inhibitory concentrations", "description": "as §1, §2, §3"}, "[3]": {"tested_on": "Klebsiella pneumoniae IFO-3512", "experiment": "Antimicrobial spectrum, minimal inhibitory concentration", "format": "cell-based", "settings": "IFO3512, Tripticase Soy Agar (BBL), pH 6.5, 37° C, read-out: minimal inhibitory concentrations", "description": "as §1, §2, §3"}, "[4]": {"tested_on": "Salmonella typhimurium IFO-12529", "experiment": "Antimicrobial spectrum, minimal inhibitory concentration", "format": "cell-based", "settings": "Salmonella enterica, Tripticase Soy Agar (BBL), pH 6.5, 37° C, read-out: minimal inhibitory concentrations", "description": "as §1, §2, §3"}, "[5]": {"tested_on": "Proteus morganii IFO-3848", "experiment": "Antimicrobial spectrum, minimal inhibitory concentration", "format": "cell-based", "settings": "Morganella morganii, IFO3848, Tripticase Soy Agar (BBL), pH 6.5, 37° C, read-out: minimal inhibitory concentrations", "description": "as §1, §2, §3"}, "[6]": {"tested_on": "Salmonella enteritidis IFO-3313", "experiment": "Antimicrobial spectrum, minimal inhibitory concentration", "format": "cell-based", "settings": "Salmonella enterica, Tripticase Soy Agar (BBL), pH 6.5, 37° C, read-out: minimal inhibitory concentrations", "description": "as §1, §2, §3"}, "[7]": {"tested_on": "Proteus mirabilis IFO-3849", "experiment": "Antimicrobial spectrum, minimal inhibitory concentration", "format": "cell-based", "settings": "IFO3849, Tripticase Soy Agar (BBL), pH 6.5, 37° C, read-out: minimal inhibitory concentrations", "description": "as §1, §2, §3"}, "[8]": {"tested_on": "Proteus vulgaris IFO-3988", "experiment": "Antimicrobial spectrum, minimal inhibitory concentration", "format": "cell-based", "settings": "IFO3988, Tripticase Soy Agar (BBL), pH 6.5, 37° C, read-out: minimal inhibitory concentrations", "description": "as §1, §2, §3"}, "[9]": {"tested_on": "Bacillus pumilus IFO-3813", "experiment": "Antimicrobial spectrum, minimal inhibitory concentration", "format": "cell-based", "settings": "IFO3813, Tripticase Soy Agar (BBL), pH 6.5, 37° C, read-out: minimal inhibitory concentrations", "description": "as §1, §2, §3"}, "[10]": {"tested_on": "Aerobacter cloacae IFO-12009", "experiment": "Antimicrobial spectrum, minimal inhibitory concentration", "format": "cell-based", "settings": "Enterobacter cloacae, IFO12009, Tripticase Soy Agar (BBL), pH 6.5, 37° C, read-out: minimal inhibitory concentrations", "description": "as §1, §2, §3"}, "[11]": {"tested_on": "Escherichia coli (clinical isolate**)", "experiment": "Antimicrobial spectrum, minimal inhibitory concentration", "format": "cell-based", "settings": "clinical isolate resistant to sulfonamide, streptomycin and sulbenicillin, Tripticase Soy Agar (BBL), pH 6.5, 37° C, read-out: minimal inhibitory concentrations", "description": "as §1\n**The strain is resistant to sulfonamide, streptomycin and sulbenicillin."}, "[12]": {"tested_on": "Staphylococcus aureus 209 P", "experiment": "Antimicrobial spectrum, minimal inhibitory concentration", "format": "cell-based", "settings": "Tripticase Soy Agar (BBL), pH 6.5, 37° C, read-out: minimal inhibitory concentrations", "description": "as §1"}, "[13]": {"tested_on": "Straphylococcus aureus No.87", "experiment": "Antimicrobial spectrum, minimal inhibitory concentration", "format": "cell-based", "settings": "Tripticase Soy Agar (BBL), pH 6.5, 37° C, read-out: minimal inhibitory concentrations", "description": "as §1"}, "[14]": {"tested_on": "Pseudomonas aeruginosa NCTC-10490", "experiment": "Antimicrobial spectrum, minimal inhibitory concentration", "format": "cell-based", "settings": "NCTC10490, Tripticase Soy Agar (BBL), pH 6.5, 37° C, read-out: minimal inhibitory concentrations", "description": "as §1"}, "Escherichia coli NIHJ": {"tested_on": "Escherichia coli NIHJ", "experiment": "Antimicrobial spectrum, minimal inhibitory concentration", "format": "cell-based", "settings": "Tripticase Soy Agar (BBL), pH 6.5, 37° C, read-out: minimal inhibitory concentrations", "description": "as §1"}, "[15]": {"tested_on": "Escherichia coli (clinical isolate, antibiotic-susceptible strain)", "experiment": "Antimicrobial spectrum, minimal inhibitory concentration", "format": "cell-based", "settings": "Tripticase Soy Agar (BBL), pH 6.5, 37° C, read-out: minimal inhibitory concentrations", "description": "as §1"}, "[16]": {"tested_on": "Bacillus subtilis PCI 219", "experiment": "Antimicrobial spectrum, minimal inhibitory concentration", "format": "cell-based", "settings": "PCI219, Tripticase Soy Agar (BBL), pH 6.5, 37° C, read-out: minimal inhibitory concentrations", "description": "as §1"}, "[17]": {"tested_on": "Staphylococcus aureus 209 P (chloramphenicol, streptomycin, tetracycline and erythromycin-resistant)", "experiment": "Antimicrobial spectrum, minimal inhibitory concentration", "format": "cell-based", "settings": "pH 6.5, read-out: minimal inhibitory concentrations", "description": "as §1"}, "[18]": {"tested_on": "Escherichia coli (clinical isolate*)", "experiment": "Antimicrobial spectrum, minimal inhibitory concentration", "format": "cell-based", "settings": "clinical isolate resistant to tetracycline, streptomycin, kanamycin, lividomycin, aminobenzylpenicillin and sulbenicillin, Tripticase Soy Agar (BBL), pH 6.5, 37° C, read-out: minimal inhibitory concentrations", "description": "as §1\n*The strain is resistant to tetracycline, streptomycin, kanamycin,\nlividomycin, aminobenzylpenicillin and sulbenicillin."}, "[19]": {"tested_on": "Staphylococcus aureaus, Bacillus subtilis, Escherichia coli, Proteus vulgaris, Salmonella typhimurium, aerobic bacteria", "experiment": "Inhibition of bacterial growth (summary statement)", "format": "cell-based", "settings": "antibiotic C-2801-X and its salts"}, "[20]": {"experiment": "Stability under strongly acidic and under alkaline conditions", "format": "physicochemical"}},
  "note": "Where a name gives a salt, the structure may show the parent alone.",
  "data": [
    {"smiles": "COC(=Cc1ccc(O)c(O)c1)C(=O)OCC1=C(C(=O)O)N2C(=O)C(NC(=O)CCCC(N)C(=O)O)(OC)C2SC1", "note": "(stereo not shown) [Antibiotic C-2801-X monosodium salt]", "values": [
      {"measurement": "death in acute toxicity test", "setting": "mice", "value": "no death"},
      {"measurement": "acidity-alkalinity", "setting": "acidity-alkalinity", "value": "Amphoteric"},
      {"measurement": "Solubility", "setting": "Solubility; in chloroform", "value": "Insoluble"},
      {"measurement": "Solubility", "setting": "Solubility; in ethanol", "value": "Soluble"},
      {"measurement": "Solubility", "setting": "Solubility; in ether", "value": "Insoluble"},
      {"measurement": "Solubility", "setting": "Solubility; in ethyl acetate", "value": "Insoluble"},
      {"measurement": "Solubility", "setting": "Solubility; in methanol", "value": "Soluble"},
      {"measurement": "Solubility", "setting": "Solubility; in water", "value": "Soluble"},
      {"measurement": "MIC", "setting": "[1]", "value": "> 100", "unit": "µg/mL"},
      {"measurement": "MIC", "setting": "[2]", "value": 12.5, "unit": "µg/mL"},
      {"measurement": "MIC", "setting": "[3]", "value": 6.25, "unit": "µg/mL"},
      {"measurement": "MIC", "setting": "[4]", "value": 6.25, "unit": "µg/mL"},
      {"measurement": "MIC", "setting": "[5]", "value": 25, "unit": "µg/mL"},
      {"measurement": "MIC", "setting": "[6]", "value": 6.25, "unit": "µg/mL"},
      {"measurement": "MIC", "setting": "[7]", "value": 3.13, "unit": "µg/mL"},
      {"measurement": "MIC", "setting": "[8]", "value": 12.5, "unit": "µg/mL"},
      {"measurement": "MIC", "setting": "[9]", "value": 50, "unit": "µg/mL"},
      {"measurement": "MIC", "setting": "[10]", "value": 25, "unit": "µg/mL"},
      {"measurement": "MIC", "setting": "[11]", "value": 25, "unit": "µg/mL"},
      {"measurement": "MIC", "setting": "[12]", "value": 50, "unit": "µg/mL"},
      {"measurement": "MIC", "setting": "[13]", "value": 50, "unit": "µg/mL"},
      {"measurement": "MIC", "setting": "[14]", "value": "> 100", "unit": "µg/mL"},
      {"measurement": "MIC", "setting": "Escherichia coli NIHJ", "value": 50, "unit": "µg/mL"},
      {"measurement": "MIC", "setting": "[15]", "value": 25, "unit": "µg/mL"},
      {"measurement": "MIC", "setting": "[16]", "value": 12.5, "unit": "µg/mL"},
      {"measurement": "MIC", "setting": "[17]", "value": 50, "unit": "µg/mL"},
      {"measurement": "MIC", "setting": "[18]", "value": 25, "unit": "µg/mL"}
    ]},
    {"smiles": "COC(=Cc1ccc(O)c(O)c1)C(=O)OCC1=C(C(=O)O)N2C(=O)C(NC(=O)CCCC(N)C(=O)O)(OC)C2SC1", "note": "(stereo not shown) [Antibiotic C-2801-X]", "values": [
      {"measurement": "acidity-alkalinity", "setting": "acidity-alkalinity", "value": "amphoteric"},
      {"measurement": "Solubility", "setting": "Solubility; in water", "value": "water-soluble"},
      {"measurement": "inhibition of growth of bacteria", "setting": "[19]", "value": "inhibit the growth"},
      {"measurement": "stability", "setting": "[20]", "value": "unstable"}
    ]}
  ]
}
